From patent publication US20180071242A1, “SUBSTITUTED ACYLANILIDES AND METHODS OF USE THEREOF” (University of Tennessee Research Foundation, priority 2006, published 2018)
“Also recorded” adds a separate entry of the source. Like-named read-outs stand apart in the source and are kept apart here.

Legend:
[1] = Metabolic stability measured in human liver microsomes; format: in vitro ADME; conditions: for microsomal CLint at 0.6 μM: human, pH 7.4, human liver microsomes
Description: Metabolic stability assays were performed in order to assess the in vitro half-life of the S-isomer of compound of formula (I) [S-(I)] when incubated with human liver microsomes. Intrinsic clearance values were extrapolated. Permeability of the compound across human, intestinal epithelial monolayers (Caco-2 cells) was assessed as a measure of intestinal permeability as well as an indicator of efflux potential. Caco-2 cells are often used as an early screening surrogate for oral bioavailability. Microsomal half-life can be converted to in vitro clearance values as a means to predict hepatic intrinsic clearance. Intrinsic clearance is defined as the functional ability of the liver to metabolize a drug or other compound.
S-(I) in this study was incubated at a final concentration of 0.6 μM. Microsome reactions were performed under either Phase I or “Phase I and II” conditions, where indicated. Compound stocks (10 mM ACN) were initially diluted to a concentration of 60 μM (in 60% ACN/H2O) resulting in a “working stock” solution of 100×. Human liver microsomes were utilized at a final concentration of […]. Duplicate wells were used for each time point (0, 6, 10, 30, and 60 minutes). Reactions were carried out at 37° C. in a shaking water bath, and the final concentration of solvent was kept constant at 0.6%. The final volume for each reaction was 600 μl, comprised of […] of 100 mM KPO4 buffer, (pH 7.4); 12.6 μl of HLM (from a 20 mg/ml stock); 6 μl of 100× “working stock” drug compound, and 126 μl of NRS “master mix” solution. At each time point, 100 μl of reaction was removed and added to a sample well containing 100 μl of ice-cold, 100% ACN (plus internal standards), to stop the reaction. The NRS “master mix” is a solution of glucose 6-phosphate dehydrogenase, NADP^+, MgCl2, and glucose 6-phosphate, prepared per manufacturer's instructions (BD Biosciences, Waltham, Mass.). Each […] stock of NRS “master mix” solution contains 3.8 ml H2O, 1.0 ml solution “A” (Cat. #461220), and 0.2 ml solution “B” (Cat. #461200). Human liver microsomes (lot #0610279, Xenotech Corp.) represented a pool of 60 donors.
Samples were centrifuged at 3,000 rpm for 10 minutes at 4° C. to remove debris and precipitated protein. […] The concentration of parent drug remaining in each well (expressed as percent remaining versus Time ‘0’, at the beginning of the reaction) was measured by LC/MS, as detailed below.
All samples were analyzed on the MDS/Sciex API4000 Q Trap system with electrospray ionization (ESI) in the positive or negative SIM mode, depending on the compounds. […] The percentage of parent drug compound remaining after each time point was determined relative to the initial measured concentration at the beginning of the reaction (T0 min). […]

[2] = tested on: orchidectomized (ORX) male Sprague-Dawley rats; test: Anabolic and androgenic activity in castrated (ORX) male rats; format: in vivo, rat; conditions: for Seminal vesicles weight: castrated (ORX) rats, oral gavage; for Anabolic ratio (muscle/prostate weight): castrated rats
Description: (§1) Anabolic and androgenic efficacy of compound of formula (I) administered by daily oral gavage were tested. The S-isomer of compound (I) [S-(I)] was synthesized and tested as described herein.
(§2) The test article for this study was weighed and dissolved in 10% DMSO (Fischer) diluted with PEG 300 (Acros Organics, NJ) for preparation of the appropriate dosage concentrations. The animals were housed in groups of 2 to 3 animals per cage. Animals were randomly assigned to one of seven groups consisting of 4 to 5 animals per group. Control groups (intact and ORX) were administered vehicle daily. S-(I) was administered via oral gavage at doses of 0.01, 0.03, 0.1, 0.3, 0.75, and 1 mg/day to both intact and ORX groups. Where appropriate, animals were castrated on day one of the study. Treatment with S-(I) began nine days post ORX and was administered daily via oral gavage for fourteen days.
(§3) The animals were sacrificed under anesthesia (ketamine/xyalzine, 87:13 mg/kg) and body weights were recorded. In addition, ventral prostate, seminal vesicles, and levator ani muscle were removed, individually weighed, normalized to body weight, and expressed as a percentage of intact control. Student's T-test was used to compare individual dose groups to the intact control group. Significance was defined a priori as a P-value <0.05. Ventral prostate and seminal vesicle weights were evaluated as a measure of androgenic activity, whereas levator ani muscle weight was evaluated as a measure of anabolic activity. Blood was collected from the abdominal aorta, centrifuged, and sera were frozen at −80° C. prior to determination of serum hormone levels. Serum luteinizing hormone (LH) and follicle stimulating hormone (FSH) concentrations were determined.

[3] = tested on: DMD (−/−) UTRN (+/+) mice; test: mdx mouse model of Duchenne muscular dystrophy
[4] = tested on: intact male Sprague-Dawley rats; test: Anabolic and androgenic activity in intact male rats; format: in vivo, rat
Description: as §1
as §2, with “Treatment with S-(I) began nine days post ORX and was administered daily via oral gavage for fourteen days.” left out
as §3, with “Student's T-test was used to compare individual dose groups to the intact control group. Significance was defined a priori as a P-value <0.05.” left out, “Blood was collected from the abdominal aorta, centrifuged, and sera were frozen at −80° C. prior to determination of serum hormone levels.” left out

[5] = target: T1, Recombinant androgen receptor ligand binding domain (AR LBD) (Homo sapiens, UniProt P10275); test: In vitro competitive radioligand binding assay with [3H]mibolerone
T1 sequence (P10275 669-900 limits assumed): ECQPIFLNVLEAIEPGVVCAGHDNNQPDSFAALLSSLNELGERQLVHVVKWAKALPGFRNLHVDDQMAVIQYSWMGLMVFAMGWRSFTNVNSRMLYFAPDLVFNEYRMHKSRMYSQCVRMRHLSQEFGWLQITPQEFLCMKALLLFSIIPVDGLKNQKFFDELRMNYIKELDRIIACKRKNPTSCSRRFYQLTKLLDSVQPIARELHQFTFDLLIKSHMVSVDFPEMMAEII
Description: Following incubation, plates were harvested with GF/B filters on the Unifilter-96 Harvester (PerkinElmer) and washed three times with ice-cold buffer B (60 mM Tris, pH 7.2). The filter plates were dried at RT, then 36 μl Microscint-O® cocktail was added to each well and sealed with TopSeal-A®. The receptor bound radioligand was then determined with the TopCount® NXT Microplate Scintillation Counter (PerkinElmer).
The equilibrium binding constant (Ki) of each compound was then determined with the following equation:

[6] = castrated mdx mice, 10 mg/kg/day subcutaneously, 12 weeks
[7] = castrated mdx mice, 10 mg/kg/day subcutaneously, 12 weeks, 10 mg/kg/day

Compound: C[C@](O)(COc1ccc(C#N)cc1)C(=O)Nc1ccc(C#N)c(Cl)c1 [S-(I), (S)—N-(3-chloro-4-cyanophenyl)-3-(4-cyanophenoxy)-2-hydroxy-2-methylpropanamide]
- Half Life (minutes) Phase I only ([1]; Phase I only): Stable
- microsomal CLint at 0.6 μM ([1]; Phase I + II, read-out: CLint (μl/min/mg) Phase I + II): 2 µL/min/mg
- microsomal CLint at 0.6 μM ([1]; Phase I only, read-out: CLint (μl/min/mg) Phase I only): < 1 µL/min/mg
- half-life at 0.6 μM ([1]; pH 7.4, Phase I + II): 5.81 h
- Seminal vesicles weight ([2]; 0.01 mg/day): 10%±3%
- Seminal vesicles weight ([2]; 0.03 mg/day): 13%±4%
- Seminal vesicles weight ([2]; 0.1 mg/day): 21%±6%
- Seminal vesicles weight ([2]; 0.3 mg/day): 43%±8%
- Seminal vesicles weight ([2]; 0.75 mg/day): 51%±9%
- Seminal vesicles weight ([2]; 1 mg/day): 69%±14%
- Anabolic ratio (muscle/prostate weight) ([2]; 0.01 mg/day): 3.02
- Anabolic ratio (muscle/prostate weight) ([2]; 0.03 mg/day): 2.13
- Anabolic ratio (muscle/prostate weight) ([2]; 0.1 mg/day): 2.27
- Anabolic ratio (muscle/prostate weight) ([2]; 0.3 mg/day): 1.90
- Anabolic ratio (muscle/prostate weight) ([2]; 0.75 mg/day): 1.83
- Anabolic ratio (muscle/prostate weight) ([2]; 1 mg/day): 1.51
- Fat mass (in words) [3, 6]: decrease
- Grip strength (in words) [3, 6]: significant increase
- Body weight (in words) [3, 7]: increased; also recorded: significant increase
- Lean [muscle] mass (in words) [3, 7]: increased; also recorded: significant increase
- Body weight (in words) ([3]; intact mdx mice): increased
- Lean mass (in words) ([3]; intact mdx mice): increased
- Seminal vesicles weight (in words) [4]: decreases
- Ki [5]: 36.9 nM
